Experiments:
Type in all cases: cell-based
[1] = tested on: mouse B16F10 cells; test: Protection of melanocytes from tunicamycin (ER stress) induced cell death, MTT assay, B16F10; settings: for EC50: Mus musculus, B16-F10, different concentrations of compound along with tunicamycin, GraphPad Prism 7; for % Recovery: compound at 25-30 μM, 6 h pretreatment, tunicamycin 300 ng/ml, total 72 h, cell growth over tunicamycin treatment
Experimental: (§1) Compounds synthesized under present invention were tested for their in vitro potency. The potency was tested as their ability to protect melanocytes from ER stress induced cell death. ER stress was caused by the treatment of tunicamycin. The results obtained are summarized in Table-I, Table-II and Table-III for mouse B16F10 cells, human A375 cells and human primary melanocytes respectively. Table-IV and Table-V describes the potency of the compounds in effective concentration 50 (EC50) which means the dose of compound needed to get the 50% of maximum effect.
(§2) For the estimation of potency, mouse B16F10, human A375 or human primary melanocytes (NHEM) cells were pretreated in quadruplicates with these compounds for 6 hours. After 6 hours of incubation, tunicamycin was added at either 300 ng/ml for B16F10 cells or at 100 ng/ml for A375 cells or at 200 ng/ml for NHEM to induce stress mediated cell death and cultured further for a total of 72 hours. The vehicle (DMSO) concentration was kept constant for each well. After 72 hours of treatment, MTT assay was performed to measure the cell growth and vehicle control was kept at 100%. Effect of the treatment of compounds was calculated as cell growth over tunicamycin treatment. For the estimation of Effective Concentration 50 (EC50), cells were treated with different concentration of compounds along with tunicamycin and MTT assay was performed. The EC50 values were calculated by GraphPad Prism 7 software.

[2] = tested on: human primary melanocytes (NHEM: Normal Human Epidermal Melanocytes); test: Protection of melanocytes from tunicamycin (ER stress) induced cell death, MTT assay, NHEM; settings: compound at 25-30 μM, 6 h pretreatment, tunicamycin 200 ng/ml, total 72 h, cell growth over tunicamycin treatment
Experimental: as §1, §2

[3] = tested on: human A375 cells; test: Protection of melanocytes from tunicamycin (ER stress) induced cell death, MTT assay, A375; settings: for EC50: Homo sapiens, A-375, different concentrations of compound along with tunicamycin, GraphPad Prism 7; for % Recovery: compound at 25-30 μM, 6 h pretreatment, tunicamycin 100 ng/ml, total 72 h, cell growth over tunicamycin treatment
Experimental: as §1, §2

| SMILES | EC50 [1] [µM] | % Recovery [1] [%] | % Recovery [2] [%] | EC50 [3] [µM] | % Recovery [3] [%] |
| --- | --- | --- | --- | --- | --- |
| CC(C)(C)CC(=O)NCCc1c[nH]c(-c2ccc(Cl)cc2)n1 [Compound 025, N-(2-(2-(4-chlorophenyl)-1H-imidazol-4-yl)ethyl)-3,3-dimethylbutanamide] | 3.3 | 55 | 41 | 14.2 | 57 |
| CCC(C)(C)C(=O)NCCc1c[nH]c(-c2ccc(Cl)cc2)n1 [Compound 026, N-(2-(2-(4-chlorophenyl)-1H-imidazol-4-yl)ethyl)-2,2-dimethylbutanamide] | 8.6 | 15 | 30 | 18.6 | 50 |
| O=C(NCCc1c[nH]c(-c2ccc(Cl)cc2)n1)C1CC1 [Compound 046, N-(2-(2-(4-chlorophenyl)-1H-imidazol-4-yl)ethyl)cyclopropanecarboxamide] |  | 27 | 10 | 7.9 | 63 |
| O=C(NCCc1c[nH]c(-c2ccc(Cl)cc2)n1)C1CCC1 [Compound 050, N-(2-(2-(4-chlorophenyl)-1H-imidazol-4-yl)ethyl)cyclobutanecarboxamide] |  | 35 | 5 | 33.4 | 27 |
| O=C(NCCc1c[nH]c(-c2ccc(Cl)cc2)n1)c1ccc(F)cc1 [Compound 051, N-(2-(2-(4-chlorophenyl)-1H-imidazol-4-yl)ethyl)-4-fluorobenzamide] |  | 22 | 35 | 5.9 | 50 |
| O=C(NCCc1c[nH]c(-c2ccc(Cl)cc2)n1)c1ccc(C(F)(F)F)cc1 [Compound 053, N-(2-(2-(4-chlorophenyl)-1H-imidazol-4-yl)ethyl)-4-(trifluoromethyl)benzamide] | 18.1 | 24 | 37 | 2.9 | 65 |
| O=C(NCCc1c[nH]c(-c2ccc(Cl)cc2)n1)c1cc(F)cc(F)c1 [Compound 054, N-(2-(2-(4-chlorophenyl)-1H-imidazol-4-yl)ethyl)-3,5-difluorobenzamide] |  | 33 | 46 | 2.9 | 58 |
| O=C(NCCc1c[nH]c(-c2ccc(Cl)cc2)n1)C1=CCCC1 [Compound 055, N-(2-(2-(4-chlorophenyl)-1H-imidazol-4-yl)ethyl)cyclopent-1-ene-1-carboxamide] |  | 10 | 13 | 8.9 | 59 |

From patent publication US12378203B2, “Imidazole compounds, process for the synthesis and uses thereof” (AHAMMUNE BIOSCIENCES PRIVATE LIMITED, priority 2018, dated 2025)
